Data published in US11434220B2, “Use of physiological cooling active ingredients, and compositions comprising such active ingredients” (BASF SE, priority 2017, dated 2022).
Blank lines part the entries; values can stand above or below the compound they belong to.

Tests used:
[1] = test system: trained panelists; experiment: Sensory assessment: cooling intensity of inventive amides in 5% sugar solution compared to FEMA 4809; format: in vivo, human; settings: scale 1 (very weak) to 9 (very strong), n=10 to 11
Experimental: […] What were assessed here were initial cooling intensity, overall cooling intensity and long-lasting action on a scale from 1 (very weak) to 9 (very strong).

[2] = molecular target: T1, human TRPM8 receptor (Homo sapiens, UniProt Q7Z2W7); experiment: Assay for TRPM8 modulators: Ca2+ fluorescence (Fluo-4) in HEK293-TRPM8 test cells; format: cell-based; settings: HEK293 cells stably transfected with human TRPM8, agonism, triplicates, 0.1-200 μM; read-out: Activity In vitro assay (EC50)
T1 construct: expressed in transfected cells
T1 sequence (Q7Z2W7 whole entry): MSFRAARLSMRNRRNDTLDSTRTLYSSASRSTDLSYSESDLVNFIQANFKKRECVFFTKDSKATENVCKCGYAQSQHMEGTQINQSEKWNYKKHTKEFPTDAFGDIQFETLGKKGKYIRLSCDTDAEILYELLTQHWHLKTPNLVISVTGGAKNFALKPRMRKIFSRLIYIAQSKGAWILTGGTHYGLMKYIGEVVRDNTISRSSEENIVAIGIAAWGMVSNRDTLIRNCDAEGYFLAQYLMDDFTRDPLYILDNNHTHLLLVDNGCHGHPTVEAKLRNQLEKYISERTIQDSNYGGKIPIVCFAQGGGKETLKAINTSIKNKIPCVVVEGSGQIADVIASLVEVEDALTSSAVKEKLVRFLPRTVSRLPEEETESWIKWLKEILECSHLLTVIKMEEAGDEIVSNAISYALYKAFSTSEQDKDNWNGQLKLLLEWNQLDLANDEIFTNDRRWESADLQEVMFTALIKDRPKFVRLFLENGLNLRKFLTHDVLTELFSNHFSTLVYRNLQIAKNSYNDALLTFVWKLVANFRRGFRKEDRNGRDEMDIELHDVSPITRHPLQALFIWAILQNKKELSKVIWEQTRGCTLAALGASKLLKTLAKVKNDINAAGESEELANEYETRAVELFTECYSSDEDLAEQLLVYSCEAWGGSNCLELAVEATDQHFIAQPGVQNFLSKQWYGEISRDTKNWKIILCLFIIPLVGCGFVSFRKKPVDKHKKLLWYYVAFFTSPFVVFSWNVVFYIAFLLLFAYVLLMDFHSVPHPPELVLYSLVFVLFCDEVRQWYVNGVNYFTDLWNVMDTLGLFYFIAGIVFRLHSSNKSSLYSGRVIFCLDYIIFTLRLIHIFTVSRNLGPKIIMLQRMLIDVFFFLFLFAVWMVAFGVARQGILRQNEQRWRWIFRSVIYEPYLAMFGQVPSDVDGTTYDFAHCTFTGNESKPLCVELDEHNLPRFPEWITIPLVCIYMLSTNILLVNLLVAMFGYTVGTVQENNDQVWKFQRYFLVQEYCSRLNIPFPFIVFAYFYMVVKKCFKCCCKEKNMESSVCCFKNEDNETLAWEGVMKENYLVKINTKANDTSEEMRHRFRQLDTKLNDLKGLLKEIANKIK
Text: The test cell system produced, with human TRPM8 DNA, was a stably transfected HEK293 cell line. Preference is given here to HEK293 which, via the plasmid introduced, offers the option of induction of TRPM8 expression by means of tetracycline.
The agonism or antagonism of the receptor can be quantified by means of a Ca^2+-sensitive dye (e.g. FURA, Fluo-4 etc.). Agonists on their own result in an increase in the Ca^2+ signal; antagonists in the presence of menthol, for example, result in a reduction in the Ca^2+ signal (in each case detected by means of the Fluo-4 dye which is caused to have different fluorescence properties by Ca^2+).
First of all, in a manner known per se, a fresh culture of transformed HEK cells is produced in cell culture bottles. The HEK293-TRPM8 test cells are detached from the cell culture bottles by means of trypsin and 40 000 cells/well are sown with 100 μl of medium in 96-hole plates (Greiner #655948 poly-D-lysine-coated). For induction of the TRPM8 receptor, tetracycline is added to the growth medium (DMEM/HG, 10% FCS tetracycline-free, 4 mM L-glutamine, 15 μg/mL blasticidin, 100 μg/mL hygromycin B, 1 μg/mL tetracycline). The next day, the cells are laden with Fluo-4AM dye and the test is conducted.
The test substances are used in the assay in triplicates in concentrations of 0.1-200 μM. Normally, the compounds are kept in DMSO solutions and diluted down for the assay to a maximum DMSO concentration of 2%.

[3] = test system: oral cavity of trained panelists; experiment: Time-intensity profile of cooling after 40 s mouth rinse with sample solution; format: in vivo, human; settings: for Cooling intensity: 40 s mouth rinse; for Onset of cooling activity: time-intensity profile, with respect to WS3
Experimental: To establish a time-intensity profile, the oral cavity of trained panelists (n=8 to 11) was rinsed for 40 seconds with a mouthful of a sample solution (2 ppm of FEMA 4809 or 50 ppm of FEMA 4496 or 50 ppm of 1) to 5)). Subsequently, the cooling intensity perceived was assessed at defined time intervals using a scale.

[4] = time 0 sec; 2 ppm FEMA 4809, 50 ppm FEMA 4496, 50 ppm 1) to 5)
[5] = time 40 sec; 2 ppm FEMA 4809, 50 ppm FEMA 4496, 50 ppm 1) to 5)
[6] = time 70 sec; 2 ppm FEMA 4809, 50 ppm FEMA 4496, 50 ppm 1) to 5)
[7] = time 100 sec; 2 ppm FEMA 4809, 50 ppm FEMA 4496, 50 ppm 1) to 5)
[8] = time 130 sec; 2 ppm FEMA 4809, 50 ppm FEMA 4496, 50 ppm 1) to 5)
[9] = time 160 sec; 2 ppm FEMA 4809, 50 ppm FEMA 4496, 50 ppm 1) to 5)
[10] = time 190 sec; 2 ppm FEMA 4809, 50 ppm FEMA 4496, 50 ppm 1) to 5)
[11] = time 220 sec; 2 ppm FEMA 4809, 50 ppm FEMA 4496, 50 ppm 1) to 5)
[12] = time 250 sec; 2 ppm FEMA 4809, 50 ppm FEMA 4496, 50 ppm 1) to 5)
[13] = time 280 sec; 2 ppm FEMA 4809, 50 ppm FEMA 4496, 50 ppm 1) to 5)
[14] = time 310 sec; 2 ppm FEMA 4809, 50 ppm FEMA 4496, 50 ppm 1) to 5)
[15] = time 340 sec; 2 ppm FEMA 4809, 50 ppm FEMA 4496, 50 ppm 1) to 5)
[16] = time 640 sec; 2 ppm FEMA 4809, 50 ppm FEMA 4496, 50 ppm 1) to 5)
[17] = time 940 sec; 2 ppm FEMA 4809, 50 ppm FEMA 4496, 50 ppm 1) to 5)
[18] = time 1240 sec; 2 ppm FEMA 4809, 50 ppm FEMA 4496, 50 ppm 1) to 5)

SMILES: CSCCN(C(=O)/C=C/c1ccc2c(c1)OCO2)c1ccccn1 [(E)-3-(1,3-benzodioxol-5-yl)-N-(2-methylsulfanylethyl)-N-(2-pyridyl)prop-2-enamide]
Initial cooling effect ([1]; 2 ppm in 5% sugar solution): 3.4
Long-lasting action ([1]; 2 ppm in 5% sugar solution): 4.3
Overall cooling intensity ([1]; 2 ppm in 5% sugar solution): 4.6
Initial cooling effect ([1]; 20 ppm in 5% sugar solution): 6.2
Long-lasting action ([1]; 20 ppm in 5% sugar solution): 7.5
Overall cooling intensity ([1]; 20 ppm in 5% sugar solution): 7.8

EC50 [2]: 30 µM
SMILES: Cc1ccc(OCC(=O)N(c2ccsc2)C2CCCCC2)cc1 [N-cyclohexyl-2-(4-methylphenoxy)-N-(3-thienyl)acetamide]

EC50 [2]: 12.5 µM
SMILES: Cc1ccc(OCC(=O)N(c2ccccc2)C2CCSC2)cc1 (stereo not shown) [2-(4-methylphenoxy)-N-phenyl-N-tetrahydrothiophen-3-yl-acetamide]

EC50 [2]: 25 µM
SMILES: COc1ccc(/C=C/C(=O)N(CC2CCCO2)c2ccccc2)cc1 (stereo not shown) [(E)-3-(4-methoxyphenyl)-N-phenyl-N-(tetrahydrofuran-2-ylmethyl)prop-2-enamide]

EC50 [2]: 25 µM
SMILES: COc1ccc(/C=C/C(=O)N(c2ccsc2)C2CCCCC2)cc1 [(E)-N-cyclohexyl-3-(4-methoxyphenyl)-N-(3-thienyl)prop-2-enamide]

EC50 [2]: 10 µM
SMILES: COc1ccc(OCC(=O)N(c2cc[nH]n2)C2CCSC2)cc1 (stereo not shown) [2-(4-methoxyphenoxy)-N-(1H-pyrazol-3-yl)-N-tetrahydrothiophen-3-yl-acetamide]

EC50 [2]: 12.5 µM
SMILES: COc1ccc(/C=C/C(=O)N(c2ccccc2)C2CCOC2)cc1 (stereo not shown) [(E)-3-(4-methoxyphenyl)-N-phenyl-N-tetrahydrofuran-3-yl-prop-2-enamide]

EC50 [2]: 10 µM
SMILES: Cc1ccc(OCC(=O)N(CC2CCCO2)c2cc[nH]n2)cc1 (stereo not shown) [2-(4-methylphenoxy)-N-(1H-pyrazol-3-yl)-N-(tetrahydrofuran-2-ylmethyl)acetamide]

EC50 [2]: 25 µM
SMILES: COc1ccc(/C=C/C(=O)N(CCSC)c2ccccc2)cc1 [(E)-3-(4-methoxyphenyl)-N-(2-methylsulfanylethyl)-N-phenyl-prop-2-enamide]

EC50 [2]: 15 µM
SMILES: O=C(/C=C/c1ccc2c(c1)OCO2)N(CC1CCCO1)c1cc[nH]n1 (stereo not shown) [(E)-3-(1,3-benzodioxol-5-yl)-N-(1H-pyrazol-3-yl)-N-(tetrahydrofuran-2-ylmethyl)prop-2-enamide]

SMILES: CSCCN(C(=O)/C=C/c1ccc2c(c1)OCO2)c1cc[nH]n1 [(E)-3-(1,3-benzodioxol-5-yl)-N-(2-methylsulfanylethyl)-N-(1H-pyrazol-3-yl)prop-2-enamide]
Initial cooling effect ([1]; 5 ppm in 5% sugar solution): 3.1
Long-lasting action ([1]; 5 ppm in 5% sugar solution): 4.6
Overall cooling intensity ([1]; 5 ppm in 5% sugar solution): 4.8
Initial cooling effect ([1]; 20 ppm in 5% sugar solution): 3.7
Long-lasting action ([1]; 20 ppm in 5% sugar solution): 6.6
Overall cooling intensity ([1]; 20 ppm in 5% sugar solution): 6.6

EC50 [2]: 10 µM
SMILES: CCN(CCSC)C(=O)/C=C/c1ccc(C)cc1 [(E)-N-ethyl-N-(2-methylsulfanylethyl)-3-(p-tolyl)prop-2-enamide]

EC50 [2]: 25 µM
SMILES: Cc1ccc(OCC(=O)N(c2ccccc2)C2CCOC2)cc1 (stereo not shown) [2-(4-methylphenoxy)-N-phenyl-N-tetrahydrofuran-3-yl-acetamide]

SMILES: Cc1ccc(/C=C/C(=O)N(c2ccccc2)C2CCOC2)cc1 (stereo not shown) [(E)-N-phenyl-3-(p-tolyl)-N-tetrahydrofuran-3-ylprop-2-enamide]
Initial cooling effect ([1]; 20 ppm in 5% sugar solution): 4.3
Long-lasting action ([1]; 20 ppm in 5% sugar solution): 6.1
Overall cooling intensity ([1]; 20 ppm in 5% sugar solution): 5.7

SMILES: CCNC(=O)C1CC(C)CCC1C(C)C (stereo not shown) [WS3, N-ethylmenthane-3-carboxamide]
Cooling intensity [3, 4]: 0
Cooling intensity [3, 5]: 4.3
Cooling intensity [3, 6]: 4.3
Cooling intensity [3, 7]: 4.1
Cooling intensity [3, 8]: 3.7
Cooling intensity [3, 9]: 3.4
Cooling intensity [3, 10]: 3.1
Cooling intensity [3, 11]: 2.9
Cooling intensity [3, 12]: 2.8
Cooling intensity [3, 13]: 2.4
Cooling intensity [3, 14]: 2.3
Cooling intensity [3, 15]: 2.1
Cooling intensity [3, 16]: 1.2
Cooling intensity [3, 17]: 0.5
Cooling intensity [3, 18]: 0.3

SMILES: CC1CCC(C(C)C)C(C(=O)Nc2ccc(CC#N)cc2)C1 (stereo not shown) [FEMA 4496]
Cooling intensity [3, 4]: 0
Cooling intensity [3, 5]: 1.9
Cooling intensity [3, 6]: 2.3
Cooling intensity [3, 7]: 2.4
Cooling intensity [3, 8]: 2.3
Cooling intensity [3, 9]: 2.3
Cooling intensity [3, 10]: 2.3
Cooling intensity [3, 11]: 2.2
Cooling intensity [3, 12]: 2.2
Cooling intensity [3, 13]: 2.2
Cooling intensity [3, 14]: 2.1
Cooling intensity [3, 15]: 2.1
Cooling intensity [3, 16]: 2.0
Cooling intensity [3, 17]: 1.5
Cooling intensity [3, 18]: 1.2
Onset of cooling activity [3]: distinctly retarded onset of the cooling action

SMILES: CSCCN(C(=O)/C=C/c1ccc2c(c1)OCO2)c1ccccn1 [5), (E)-3-(1,3-benzodioxol-5-yl)-N-(2-methylsulfanylethyl)-N-(2-pyridyl)prop-2-enamide]
Cooling intensity [3, 4]: 0.0
Cooling intensity [3, 5]: 5.7
Cooling intensity [3, 6]: 6.2
Cooling intensity [3, 7]: 6.0
Cooling intensity [3, 8]: 5.6
Cooling intensity [3, 9]: 5.6
Cooling intensity [3, 10]: 5.2
Cooling intensity [3, 11]: 5.0
Cooling intensity [3, 12]: 4.9
Cooling intensity [3, 13]: 4.6
Cooling intensity [3, 14]: 4.5
Cooling intensity [3, 15]: 4.3
Cooling intensity [3, 16]: 3.1
Cooling intensity [3, 17]: 1.9
Cooling intensity [3, 18]: 1.1

SMILES: CSCCN(C(=O)/C=C/c1ccc2c(c1)OCO2)c1ccccc1 [(E)-3-(1,3-benzodioxol-5-yl)-N-(2-methylsulfanylethyl)-N-phenyl-prop-2-enamide]
Initial cooling effect ([1]; 20 ppm in 5% sugar solution): 2.7
Long-lasting action ([1]; 20 ppm in 5% sugar solution): 4.7
Overall cooling intensity ([1]; 20 ppm in 5% sugar solution): 4.7

SMILES: Cc1ccc(/C=C/C(=O)N(c2ccccn2)C2CCSC2)cc1 (stereo not shown) [3), (E)-3-(p-tolyl)-N-(2-pyridyl)-N-tetrahydrothiophen-3-ylprop-2-enamide]
Cooling intensity [3, 4]: 0.0
Cooling intensity [3, 5]: 4.0
Cooling intensity [3, 6]: 4.0
Cooling intensity [3, 7]: 4.0
Cooling intensity [3, 8]: 3.9
Cooling intensity [3, 9]: 3.7
Cooling intensity [3, 10]: 3.7
Cooling intensity [3, 11]: 3.5
Cooling intensity [3, 12]: 3.4
Cooling intensity [3, 13]: 3.3
Cooling intensity [3, 14]: 3.2
Cooling intensity [3, 15]: 3.2
Cooling intensity [3, 16]: 2.2
Cooling intensity [3, 17]: 1.3
Cooling intensity [3, 18]: 0.7

SMILES: CSCCN(C(=O)/C=C/c1ccc(C)cc1)c1ccccn1 [(E)-N-(2-methylsulfanylethyl)-3-(p-tolyl)-N-(2-pyridyl)prop-2-enamide]
Initial cooling effect ([1]; 20 ppm in 5% sugar solution): 4
Long-lasting action ([1]; 20 ppm in 5% sugar solution): 5.3
Overall cooling intensity ([1]; 20 ppm in 5% sugar solution): 5.7

SMILES: Cc1ccc(OCC(=O)N(Cc2cccs2)c2ccn[nH]2)cc1 [FEMA 4809]
Initial cooling effect ([1]; 2 ppm in 5% sugar solution): 3.9
Long-lasting action ([1]; 2 ppm in 5% sugar solution): 7.5
Overall cooling intensity ([1]; 2 ppm in 5% sugar solution): 7.3
Cooling intensity [3, 4]: 0
Cooling intensity [3, 5]: 2.7
Cooling intensity [3, 6]: 2.8
Cooling intensity [3, 7]: 2.5
Cooling intensity [3, 8]: 2.6
Cooling intensity [3, 9]: 2.6
Cooling intensity [3, 10]: 2.7
Cooling intensity [3, 11]: 2.8
Cooling intensity [3, 12]: 2.7
Cooling intensity [3, 13]: 2.8
Cooling intensity [3, 14]: 2.9
Cooling intensity [3, 15]: 2.8
Cooling intensity [3, 16]: 2.6
Cooling intensity [3, 17]: 2.6
Cooling intensity [3, 18]: 2.1
Onset of cooling activity [3]: distinctly retarded onset of the cooling action
